Results taken from PMC9181188 (International Journal of Molecular Sciences, 2022).
≈ marks a conversion by molar mass, not a printed value. Read-outs that look alike come from different tables or passages of the source.

Tests used:
[1] = system: SW480 cells; assay: MTT assay, SW480; type: cell-based, human; conditions: for IC50: human primary colon cancer, 72 h, MTT, mean ± SD; for SI SW480: SI = IC50 for normal cell line (HaCaT)/IC50 cancer cell line
[2] = system: SW620 cells; assay: MTT assay, SW620; type: cell-based, human; conditions: for IC50: Homo sapiens, SW-620, 72 h, human metastatic colon cancer, 72 h, MTT, mean ± SD; for SI SW620: SI = IC50 for normal cell line (HaCaT)/IC50 cancer cell line
[3] = system: PC3 cells; assay: MTT assay, PC3; type: cell-based, human; conditions: for IC50: human metastatic prostate cancer, 72 h, MTT, mean ± SD; for SI PC3: SI = IC50 for normal cell line (HaCaT)/IC50 cancer cell line
[4] = system: HaCaT cells; assay: MTT assay, HaCaT normal cells; type: cell-based; conditions: human immortal keratinocyte cell line, 72 h, mean ± SD
[5] = system: S. aureus NCTC 4163; assay: MIC, twofold microdilution, standard strain; type: cell-based; conditions: Staphylococcus aureus, read-out: MIC S. aureus NCTC 4163
[6] = system: S. aureus ATCC 25923; assay: MIC, twofold microdilution, standard strain; type: cell-based; conditions: Staphylococcus aureus, read-out: MIC S. aureus ATCC 25923
[7] = system: S. aureus ATCC 6538; assay: MIC, twofold microdilution, standard strain; type: cell-based; conditions: Staphylococcus aureus, read-out: MIC S. aureus ATCC 6538
[8] = system: S. aureus ATCC 29213; assay: MIC, twofold microdilution, standard strain; type: cell-based; conditions: Staphylococcus aureus, read-out: MIC S. aureus ATCC 29213
[9] = system: S. epidermidis ATCC 12228; assay: MIC, twofold microdilution, standard strain; type: cell-based; conditions: Staphylococcus epidermidis, read-out: MIC S. epidermidis ATCC 12228
[10] = system: S. epidermidis ATCC 35984; assay: MIC, twofold microdilution, standard strain; type: cell-based; conditions: Staphylococcus epidermidis, read-out: MIC S. epidermidis ATCC 35984
[11] = system: E. coli ATCC 25922; assay: MIC, twofold microdilution, standard strain; type: cell-based, Escherichia coli; conditions: Escherichia coli, read-out: MIC E. coli ATCC 25922
[12] = system: P. aeruginosa ATCC 27853; assay: MIC, twofold microdilution, standard strain; type: cell-based; conditions: Pseudomonas aeruginosa, read-out: MIC P. aeruginosa ATCC 27853
[13] = system: S. epidermidis KR 4047 825/19; assay: MIC, clinical S. epidermidis strain; type: cell-based; conditions: Staphylococcus epidermidis, KR4047825/19, quinolone-resistant, 18 h of treatment
[14] = system: S. epidermidis KR 4243 829/19; assay: MIC, clinical S. epidermidis strain; type: cell-based; conditions: Staphylococcus epidermidis, KR4243829/19, quinolone-susceptible, 18 h of treatment
[15] = system: S. epidermidis KR 4313 834/19; assay: MIC, clinical S. epidermidis strain; type: cell-based; conditions: Staphylococcus epidermidis, KR4313834/19, quinolone-susceptible, 18 h of treatment
[16] = system: S. epidermidis KR 4358/2 840/19; assay: MIC, clinical S. epidermidis strain; type: cell-based; conditions: Staphylococcus epidermidis, read-out: MIC KR 4358/2 840/19
[17] = system: S. epidermidis T 5253 845/19; assay: MIC, clinical S. epidermidis strain; type: cell-based; conditions: Staphylococcus epidermidis, T5253845/19, quinolone-resistant, 18 h of treatment
[18] = system: S. epidermidis T 5399 848/19; assay: MIC, clinical S. epidermidis strain; type: cell-based; conditions: Staphylococcus epidermidis, T5399848/19, quinolone-susceptible, 18 h of treatment
[19] = system: S. epidermidis T 5501 851/19; assay: MIC, clinical S. epidermidis strain; type: cell-based; conditions: Staphylococcus epidermidis, T5501851/19, read-out: MIC T 5501 851/19, quinolone-susceptible, 18 h of treatment
[20] = system: M. tuberculosis H37Rv; assay: MABA (microplate Alamar blue assay) MIC; type: cell-based; conditions: Mycobacterium tuberculosis, 336 h, read-out: MIC M. tuberculosis H37Rv
[21] = system: M. tuberculosis Spec. 192 (Sensitive to Tuberculostatics); assay: MABA (microplate Alamar blue assay) MIC; type: cell-based; conditions: Mycobacterium tuberculosis, 336 h, read-out: MIC M. tuberculosis Spec. 192 (Sensitive to Tuberculostatics)
[22] = system: SW480, SW620, and PC3 cancer cell lines; assay: MTT assay, cancer cell lines as a group; type: cell-based, human; conditions: 72 h, all three cancer cell lines (SW480, SW620, PC3), read-out: IC50 against all tested cancer cell lines
[23] = system: standard staphylococci (S. aureus, S. epidermidis); assay: MIC, standard Gram-positive strains as a group; type: cell-based; conditions: Staphylococcus aureus; range over standard Gram-positive strains; read-out: MIC against standard staphylococci
[24] = system: M. tuberculosis strains; assay: MABA MIC, mycobacterial strains as a group; type: cell-based; conditions: Mycobacterium tuberculosis; summary over strains; read-out: MIC antimycobacterial (strain not specified)
[25] = KR4358/2840/19, clinical S. epidermidis, quinolone-susceptible, 18 h of treatment

| SMILES | IC50 ([1]; Homo sapiens, SW480, 72 h) [µM] | SI SW480 [1] | IC50 [2] [µM] | SI SW620 [2] | IC50 ([3]; Homo sapiens, PC-3, 72 h) [µM] | SI PC3 [3] | IC50 [4] [µM] | MIC [13] [µg/mL] | MIC [14] [µg/mL] | MIC [15] [µg/mL] | MIC [17] [µg/mL] | MIC [18] [µg/mL] | MIC [19] [µg/mL] | MIC [23] [µg/mL] | MIC ([5]; NCTC4163, 18 h of treatment) [µg/mL] | MIC ([6]; ATCC25923, 18 h of treatment) [µg/mL] | MIC ([7]; ATCC6538, 18 h of treatment) [µg/mL] | MIC ([8]; ATCC29213, 18 h of treatment) [µg/mL] | MIC ([9]; ATCC12228, 18 h of treatment) [µg/mL] | MIC ([10]; ATCC35984, 18 h of treatment) [µg/mL] | also measured |
| --- | --- | --- | --- | --- | --- | --- | --- | --- | --- | --- | --- | --- | --- | --- | --- | --- | --- | --- | --- | --- | --- |
| CCCCCCCCCCCCCCCC(=O)N1CCC[C@H]2CN(c3c(F)cc4c(=O)c(C(=O)O)cn(C5CC5)c4c3OC)C[C@H]21 [Compound 9m, 1-Cyclopropyl-6-fluoro-7-(1-hexadecanoyl-octahydro-pyrrolo[3,4-b]pyridin-6-yl)-8-methox-4-oxo-1,4-dihydro-quinoline-3-carboxylic acid] | 9.4 ± 2.3 | 10.3 | 10.4 ± 1.4 | 9.3 | 8.1 ± 1.5 | 11.9 | 96.7 ± 2.6 | 512 (≈ 800 µM) | 512 (≈ 800 µM) | 512 (≈ 800 µM) | 512 (≈ 800 µM) | 512 (≈ 800 µM) | 512 (≈ 800 µM) | > 32 | – | – | – | – | – | – | MIC ([5]; NCTC4163, 18 h): > 512 µg/mL; MIC ([6]; ATCC25923, 18 h): > 512 µg/mL; MIC ([7]; ATCC6538, 18 h): > 512 µg/mL; MIC ([8]; ATCC29213, 18 h): > 512 µg/mL; MIC ([9]; ATCC12228, 18 h): > 512 µg/mL; MIC ([10]; ATCC35984, 18 h): > 512 µg/mL; MIC ([11]; ATCC25922, 18 h): > 512 µg/mL; MIC ([12]; ATCC27853, 18 h): > 512 µg/mL; MIC ([16]; KR4358/2840/19, 18 h): > 512 µg/mL; MIC [20]: > 512 µg/mL; MIC [21]: > 512 µg/mL; IC50 ([22]; Homo sapiens): 5 to 10 µM; IC50 [22]: 5.6 to 10.4 µM |
| CCCCC/C=C\C/C=C\CCCCCCCC(=O)N1CCCC2CN(c3c(F)cc4c(=O)c(C(=O)O)cn(C5CC5)c4c3OC)CC21 (stereo not drawn) [Compound 11m, 1-Cyclopropyl-6-fluoro-8-methoxy-7-{1-(9Z,12Z)-octadeca-9,12-dienoyl-octahydropyrrolo-[3,4-b]pyridin-6-yl)-4-oxo-1,4-dihydro-quinoline-3-carboxylic acid] | < 5 | 19.0 | 7.3 ± 0.9 | 12.5 | < 5 | 25.4 | 91.4 ± 5.3 | 512 (≈ 771 µM) | 256 (≈ 386 µM) | 64 (≈ 96.4 µM) | 512 (≈ 771 µM) | 512 (≈ 771 µM) | 512 (≈ 771 µM) | > 32 | > 512 | > 512 | > 512 | > 512 | > 512 | > 512 | IC50 [1]: 4.8 ± 1.3 µM; IC50 [3]: 3.6 ± 1.1 µM; MIC ([11]; ATCC25922, 18 h of treatment): > 512 µg/mL; MIC ([12]; ATCC27853, 18 h of treatment): > 512 µg/mL; MIC [16, 25]: 128 µg/mL (≈ 193 µM); MIC ([20]; 2 weeks of treatment): 512 µg/mL (≈ 771 µM); MIC ([21]; 2 weeks of treatment): 128 µg/mL (≈ 193 µM); MIC [24]: ≥ 128 µg/mL |
| CCCCC/C=C\C/C=C\C/C=C\CCCCC(=O)N1CCCC2CN(c3c(F)cc4c(=O)c(C(=O)O)cn(C5CC5)c4c3OC)CC21 (stereo not drawn) [Compound 12m, 1-Cyclopropyl-6-fluoro-8-methoxy-7-{1-(6Z,9Z,12Z)-octadeca-6,9,12-trienoyl-octahydro-pyrrolo[3,4-b]pyridin-6-yl}-4-oxo-1,4-dihydro-quinoline-3-carboxylic acid] | 16.8 ± 2.3 | 5.3 | 18.3 ± 3.2 | 4.8 | 14.7 ± 2.3 | 6.0 | 88.7 ± 3.3 | 256 (≈ 387 µM) | 32 (≈ 48.3 µM) | 256 (≈ 387 µM) | 512 (≈ 774 µM) | 32 (≈ 48.3 µM) | 32 (≈ 48.3 µM) | > 32 | 64 (≈ 96.7 µM) | 64 (≈ 96.7 µM) | 64 (≈ 96.7 µM) | 64 (≈ 96.7 µM) | 64 (≈ 96.7 µM) | 32 (≈ 48.3 µM) | MIC ([11]; ATCC25922, 18 h of treatment): 128 µg/mL (≈ 193 µM); MIC ([12]; ATCC27853, 18 h of treatment): > 512 µg/mL; MIC [16, 25]: 512 µg/mL (≈ 774 µM); MIC ([20]; 2 weeks of treatment): 64 µg/mL (≈ 96.7 µM); MIC ([21]; 2 weeks of treatment): 64 µg/mL (≈ 96.7 µM); MIC [24]: 64 µg/mL (≈ 96.7 µM) |
